The target of one test is T1, human TRESK (KCNK18) (Homo sapiens, UniProt Q7Z418).
T1 construct: full-length cDNA in pcDNA3.1, co-transfected with separate GFP cDNA in tsA201 cells
T1 sequence (Q7Z418 1-384): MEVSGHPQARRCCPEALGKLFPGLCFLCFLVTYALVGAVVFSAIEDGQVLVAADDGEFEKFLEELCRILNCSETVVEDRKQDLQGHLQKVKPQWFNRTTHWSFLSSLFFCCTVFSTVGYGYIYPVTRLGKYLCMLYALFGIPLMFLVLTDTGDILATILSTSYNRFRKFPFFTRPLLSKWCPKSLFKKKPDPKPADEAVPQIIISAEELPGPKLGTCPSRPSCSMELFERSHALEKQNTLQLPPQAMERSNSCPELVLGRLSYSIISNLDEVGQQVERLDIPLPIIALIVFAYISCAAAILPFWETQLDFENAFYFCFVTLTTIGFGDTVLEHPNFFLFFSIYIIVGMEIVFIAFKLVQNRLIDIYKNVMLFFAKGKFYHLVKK
Kind of test: whole-cell patch clamp, current at -40 mV. It is filed as cell-based. For orientation: Patch clamp records ionic current or voltage across a cell membrane.

In test [1] the test system is T2, TREK subfamily channels (TREK-1, TREK-2 and TRAAK).
T2 construct: gene Kcnk2; native channels in cultured nodose ganglion neurons; the authors argue mainly TREK-1, subtype not proven
Kind of test: whole-cell perforated patch clamp, outward current in native neurons. In kind it is cell-based, Mus musculus. The conditions noted are these: activator, unreliable (extrapolated), holding -30 mV, blocker cocktail, room temperature.

Each structure is given as a SMILES string.

The term inhibition denotes the relative decrease from the control value, in per cent. Read a low inhibition as little suppression. In general, EC50 refers to the concentration that produces a half-maximal response. Compound `Nc1nc2ccc(OC(F)(F)F)cc2s1` [riluzole] displayed an inhibition at 100 µM against human TRESK (KCNK18) of 64%. In addition, the EC50 in test [1] is 392.2 ± 182.8 µM.

Values taken from article PMC6013220, “Activation of TREK currents by riluzole in three subgroups of cultured mouse nodose ganglion neurons” (PLoS ONE, 2018).
